Columns and labels:
[1] = tested on: GK rats; assay: Oral glucose tolerance test (OGTT) and pancreas mass in GK rats; assay type: in vivo, rat; details: 2.5 μg/100 g BW
Experimental: GK rats are diabetic non obese with moderate insulin-resistance, and have lower pancreatic cells than control rats. The pancreatic cells are also less efficient in the insulin secretion.
The glucose resistance of these animals was tested by an oral glucose tolerance test (OGTT) Animals were fed with 2 g/kg BW of glucose and the Glucose concentration and Insulin concentration in blood were measured.
The glucose concentration (FIG. 40) and insulin concentration (FIG. 41) were then measured for this time.

[2] = tested on: muscle mitochondria; assay: Rate of muscle mitochondrial oxygen consumption (JO2) of treated Wistar rats; assay type: in vivo, rat; details: 250 μg/kg BW/day, vs placebo
Experimental: The major part of the liver and the red part of each quadriceps were rinsed, and chopped into isolation medium (250 mM sucrose, 20 mM Tris-HCl and 1 mM EGTA-Tris, pH 7.4). Nuclei and cell debris were removed by centrifugation at 800 g for 10 min. Mitochondria were then isolated from the supernatant by spinning twice at 8,000 g for 10 minutes. The mitochondrial pellet was resuspended in 0.5 ml of isolation buffer and kept on ice. Mitochondrial protein was measured by the bicinchoninic acid method (Pierce, Rockford, Ill.). The final mitochondrial suspensions were maintained on ice and were used for measurements of oxygen consumption rate.
The rate of mitochondrial oxygen consumption (JO2) was measured at 30° C. in an incubation chamber with a Clark-type O2 electrode filled with 2 ml of incubation medium (125 mM KCl, 10 mM Pi-Tris, 20 mM Tris-HCl, 0.1 mM EGTA, pH 7.2). All measurements were performed using mitochondria (1.0 or 0.2 mg mitochondrial protein/ml for liver and skeletal muscle) incubated either with various substrates: glutamate/malate (5 mM/2.5 mM) and succinate (5 mM), alone or in combination, palmitoyl carnitine (55 μM) and octanoyl carnitine (100 μM). For each substrate, JO2 was recorded in the presence of the substrate alone (State 2) and following the addition of 1 mM ADP (state 3). Oligomycin (1.25 μg/mg protein) was added to the mitochondrial suspension to determine the non-phosphorylating respiratory rate (state 4). The incubation medium was constantly stirred with a built-in electromagnetic stirrer and bar flea. The efficiency of the mitochondrial oxidative phosphorylation was assessed by the state 3/state 4 ratio which measures the degree of control imposed on oxidation by phosphorylation (respiratory control ratio, RCR).

[3] = tested on: nuclear receptors of the thyroid hormones, TRα-1 and TRβ-1; details: literature statements; cited from earlier work
[4] = 2 g/kg glucose, 3 hours, vs placebo

For `N[C@@H](Cc1ccc(Oc2cc(I)c(O)c(I)c2)c(I)c1)C(=O)O` [rT3, 3′,5′,3-triiodothyronine], which “AUC of the glucose concentration after OGTT” value [1, 4] is on record?
Its value is “significantly reduced”.

And the “AUC of the insulin concentration after OGTT” value [1, 4]?
The value was “largely enhanced”.

And the “Kinetic of blood glucose concentration after OGTT” value ([1]; 5 first minutes following the OGTT)?
Its value is “regulate more rapidly”.

What about the “Kinetic of insulin concentration after OGTT” value ([1]; 20 min kinetic) of the same compound?
Its value is “increase”.

And the Pancreas mass ([1]; vs placebo)?
The Pancreas mass was “increase”.

And the “Muscle mitochondrial respiration, non-phosphorylating (state 4)” value [2]?
The value was “failed to substantially affect”.

And the “Muscle mitochondrial respiration, phosphorylating (state 3)” value [2]?
The value was “failed to substantially affect”.

And the “Binding to the nuclear (TH) receptors” value [3]?
The value was “very little affinity”.

Reference: patent US20110064773A1, “PHARMACEUTICAL COMPOSITIONS COMPRISING A THYROID HORMON AND THEIR THERAPEUTIC USE” (UNIVERSITE JOSEPH FOURIER, priority 2007, published 2011)
